Laboratory results published in the supplement of paper PMC10307832.

Columns and labels:
Assay in all cases: relative viability (nuclei count vs DMSO), 5 days (fraction); higher = more cells survive
NCI-H522 = test system: NCI-H522
Procedure, shortened: (§1)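 Lung cancer cell lines were pin-tool dosed in 1536-well plates on the day after seeding, with either a lone drug or a fixed anchor-drug dose plus five library-drug doses (not always all listed) in √10 steps. Nuclei were counted on 4× images after 5 days. Relative viability is the ratio of treated-well to vehicle-well nuclei counts, with each value a median of duplicate plates.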

NCI-H441 = test system: NCI-H441
Procedure, shortened: as §1

HCC-15 = test system: HCC-15
Procedure, shortened: as §1

NCI-H2347 = test system: NCI-H2347
Procedure, shortened: as §1

NCI-H2023 = test system: NCI-H2023
Procedure, shortened: as §1

ABC-1 = test system: ABC-1
Procedure, shortened: as §1

NCI-H1793 = test system: NCI-H1793
Procedure, shortened: as §1

NCI-H322M = test system: NCI-H322M
Procedure, shortened: as §1

NCI-H1734 = test system: NCI-H1734
Procedure, shortened: as §1

NCI-H838 = test system: NCI-H838
Procedure, shortened: as §1

A-427 = test system: A-427
Procedure, shortened: as §1

NCI-H647 = test system: NCI-H647
Procedure, shortened: as §1

NCI-H1915 = test system: NCI-H1915
Procedure, shortened: as §1

NCI-H358 = test system: NCI-H358
Procedure, shortened: as §1

NCI-H2342 = test system: NCI-H2342
Procedure, shortened: as §1

NCI-H1944 = test system: NCI-H1944
Procedure, shortened: as §1

SW 1573 = test system: SW 1573
Procedure, shortened: as §1

LK-2 = test system: LK-2
Procedure, shortened: as §1

EPLC-272H = test system: EPLC-272H
Procedure, shortened: as §1

RERF-LC-KJ = test system: RERF-LC-KJ
Procedure, shortened: as §1

UMC-11 = test system: UMC-11
Procedure, shortened: as §1

NCI-H2009 = test system: NCI-H2009
Procedure, shortened: as §1

LC-2-ad = test system: LC-2-ad
Procedure, shortened: as §1

CCNC(=O)c1noc(-c2cc(C(C)C)c(O)cc2O)c1-c1ccc(CN2CCOCC2)cc1 [Luminespib] + Cc1cc(Nc2cc(N3CCN(C)CC3)nc(Sc3ccc(NC(=O)C4CC4)cc3)n2)n[nH]1 [Tozasertib] (partner 0.1 µM)
relative viability (NCI-H522; first compound 0.002 µM): 0.621 | relative viability (NCI-H522; first compound 0.006325 µM): 0.545 | relative viability (NCI-H522; first compound 0.02 µM): 0.512 | relative viability (NCI-H522; first compound 0.06325 µM): 0.584 | relative viability (NCI-H522; first compound 0.2 µM): 0.512 | relative viability (NCI-H441; first compound 0.002 µM): 0.671 | relative viability (NCI-H441; first compound 0.006325 µM): 0.507 | relative viability (NCI-H441; first compound 0.02 µM): 0.647 | relative viability (NCI-H441; first compound 0.06325 µM): 0.186 | relative viability (NCI-H441; first compound 0.2 µM): 0.148 | relative viability (HCC-15; first compound 0.002 µM): 0.466 | relative viability (HCC-15; first compound 0.006325 µM): 0.441 | relative viability (HCC-15; first compound 0.02 µM): 0.444 | relative viability (HCC-15; first compound 0.06325 µM): 0.173 | relative viability (HCC-15; first compound 0.2 µM): 0.0953 | relative viability (NCI-H2347; first compound 0.002 µM): 0.592 | relative viability (NCI-H2347; first compound 0.006325 µM): 0.407 | relative viability (NCI-H2347; first compound 0.02 µM): 0.471 | relative viability (NCI-H2347; first compound 0.06325 µM): 0.269 | relative viability (NCI-H2347; first compound 0.2 µM): 0.198 | relative viability (NCI-H2023; first compound 0.002 µM): 0.395 | relative viability (NCI-H2023; first compound 0.006325 µM): 0.389 | relative viability (NCI-H2023; first compound 0.02 µM): 0.343 | relative viability (NCI-H2023; first compound 0.06325 µM): 0.0657 | relative viability (NCI-H2023; first compound 0.2 µM): 0.0748 | relative viability (ABC-1; first compound 0.002 µM): 0.196 | relative viability (ABC-1; first compound 0.006325 µM): 0.21 | relative viability (ABC-1; first compound 0.02 µM): 0.139 | relative viability (ABC-1; first compound 0.06325 µM): 0.173 | relative viability (ABC-1; first compound 0.2 µM): 0.14 | relative viability (NCI-H1793; first compound 0.002 µM): 0.345 | relative viability (NCI-H1793; first compound 0.006325 µM): 0.346 | relative viability (NCI-H1793; first compound 0.02 µM): 0.296 | relative viability (NCI-H1793; first compound 0.06325 µM): 0.307 | relative viability (NCI-H1793; first compound 0.2 µM): 0.13 | relative viability (NCI-H322M; first compound 0.002 µM): 0.423 | relative viability (NCI-H322M; first compound 0.006325 µM): 0.458 | relative viability (NCI-H322M; first compound 0.02 µM): 0.422 | relative viability (NCI-H322M; first compound 0.06325 µM): 0.331 | relative viability (NCI-H322M; first compound 0.2 µM): 0.301 | relative viability (NCI-H1734; first compound 0.002 µM): 0.248 | relative viability (NCI-H1734; first compound 0.006325 µM): 0.254 | relative viability (NCI-H1734; first compound 0.02 µM): 0.252 | relative viability (NCI-H1734; first compound 0.06325 µM): 0.143 | relative viability (NCI-H1734; first compound 0.2 µM): 0.154 | relative viability (NCI-H838; first compound 0.002 µM): 0.272 | relative viability (NCI-H838; first compound 0.006325 µM): 0.215 | relative viability (NCI-H838; first compound 0.02 µM): 0.308 | relative viability (NCI-H838; first compound 0.06325 µM): 0.164 | relative viability (NCI-H838; first compound 0.2 µM): 0.123 | relative viability (A-427; first compound 0.002 µM): 0.218 | relative viability (A-427; first compound 0.006325 µM): 0.204 | relative viability (A-427; first compound 0.02 µM): 0.151 | relative viability (A-427; first compound 0.06325 µM): 0.226 | relative viability (A-427; first compound 0.2 µM): 0.134 | relative viability (NCI-H647; first compound 0.002 µM): 0.299 | relative viability (NCI-H647; first compound 0.006325 µM): 0.274 | relative viability (NCI-H647; first compound 0.02 µM): 0.431 | relative viability (NCI-H647; first compound 0.06325 µM): 0.0669 | relative viability (NCI-H647; first compound 0.2 µM): 0.0766 | relative viability (NCI-H1915; first compound 0.002 µM): 0.449 | relative viability (NCI-H1915; first compound 0.006325 µM): 0.518 | relative viability (NCI-H1915; first compound 0.02 µM): 0.377 | relative viability (NCI-H1915; first compound 0.06325 µM): 0.364 | relative viability (NCI-H1915; first compound 0.2 µM): 0.187 | relative viability (NCI-H358; first compound 0.002 µM): 0.0938 | relative viability (NCI-H358; first compound 0.006325 µM): 0.115 | relative viability (NCI-H358; first compound 0.02 µM): 0.104 | relative viability (NCI-H358; first compound 0.06325 µM): 0.0661 | relative viability (NCI-H358; first compound 0.2 µM): 0.0636 | relative viability (NCI-H2342; first compound 0.002 µM): 0.578 | relative viability (NCI-H2342; first compound 0.006325 µM): 0.576 | relative viability (NCI-H2342; first compound 0.02 µM): 0.361 | relative viability (NCI-H2342; first compound 0.06325 µM): 0.589 | relative viability (NCI-H2342; first compound 0.2 µM): 0.334 | relative viability (NCI-H1944; first compound 0.002 µM): 0.253 | relative viability (NCI-H1944; first compound 0.006325 µM): 0.256 | relative viability (NCI-H1944; first compound 0.02 µM): 0.22 | relative viability (NCI-H1944; first compound 0.06325 µM): 0.197 | relative viability (NCI-H1944; first compound 0.2 µM): 0.22 | relative viability (SW 1573; first compound 0.002 µM): 0.199 | relative viability (SW 1573; first compound 0.006325 µM): 0.175 | relative viability (SW 1573; first compound 0.02 µM): 0.173 | relative viability (SW 1573; first compound 0.06325 µM): 0.113 | relative viability (SW 1573; first compound 0.2 µM): 0.0892 | relative viability (LK-2; first compound 0.002 µM): 0.184 | relative viability (LK-2; first compound 0.006325 µM): 0.194 | relative viability (LK-2; first compound 0.02 µM): 0.154 | relative viability (LK-2; first compound 0.06325 µM): 0.208 | relative viability (LK-2; first compound 0.2 µM): 0.182 | relative viability (EPLC-272H; first compound 0.002 µM): 0.282 | relative viability (EPLC-272H; first compound 0.006325 µM): 0.296 | relative viability (EPLC-272H; first compound 0.06325 µM): 0.399 | relative viability (EPLC-272H; first compound 0.2 µM): 0.22 | relative viability (RERF-LC-KJ; first compound 0.002 µM): 0.558 | relative viability (RERF-LC-KJ; first compound 0.006325 µM): 0.501 | relative viability (RERF-LC-KJ; first compound 0.02 µM): 0.518 | relative viability (RERF-LC-KJ; first compound 0.06325 µM): 0.211 | relative viability (RERF-LC-KJ; first compound 0.2 µM): 0.208 | relative viability (UMC-11; first compound 0.002 µM): 0.211 | relative viability (UMC-11; first compound 0.006325 µM): 0.191 | relative viability (UMC-11; first compound 0.02 µM): 0.194 | relative viability (UMC-11; first compound 0.06325 µM): 0.242 | relative viability (UMC-11; first compound 0.2 µM): 0.196 | relative viability (NCI-H2009; first compound 0.002 µM): 0.766 | relative viability (NCI-H2009; first compound 0.006325 µM): 0.746 | relative viability (NCI-H2009; first compound 0.02 µM): 0.798 | relative viability (NCI-H2009; first compound 0.06325 µM): 0.28 | relative viability (NCI-H2009; first compound 0.2 µM): 0.114 | relative viability (LC-2-ad; first compound 0.002 µM): 0.482 | relative viability (LC-2-ad; first compound 0.006325 µM): 0.493 | relative viability (LC-2-ad; first compound 0.02 µM): 0.414 | relative viability (LC-2-ad; first compound 0.06325 µM): 0.258 | relative viability (LC-2-ad; first compound 0.2 µM): 0.251
